pIC50: −log10 of the molar value. Active and inactive are the calls of the source. The calls are words filed in the database; no cut-off is given here.
These compounds were tested on T47D (assay: Cell viability of human T47D cells at 10 uM by trypan blue exclusion assay).
Assay type: functional, cell-based

| SMILES | Activity |
| --- | --- |
| COc1cc(N)c2nccc(C)c2c1Oc1cccc(C(F)(F)F)c1 | inactive |

Each compound was assayed on T47D (assay: Cell viability of human T47D cells by trypan blue exclusion assay).
Assay type: functional, cell-based

| pIC50 | SMILES |
| --- | --- |
| 6.28 | COc1cc(NCCC(=N)N)c2nccc(C)c2c1Oc1cccc(C(F)(F)F)c1 |
| 6.42 | COc1cc(NCCC#N)c2nccc(C)c2c1Oc1cccc(C(F)(F)F)c1 |
| 7.81 | COc1cc(NCc2ccco2)c2nccc(C)c2c1Oc1cccc(C(F)(F)F)c1 |
| 5.43 | COc1cc(NCc2cccs2)c2nccc(C)c2c1Oc1cccc(C(F)(F)F)c1 |
| 6.92 | COc1cc(NCCCN)c2nccc(C)c2c1Oc1cccc(C(F)(F)F)c1 |
| 5.89 | COc1cc(NCc2cnc[nH]2)c2nccc(C)c2c1Oc1cccc(C(F)(F)F)c1 |
| 5.70 | CCOC(=N)CCNc1cc(OC)c(Oc2cccc(C(F)(F)F)c2)c2c(C)ccnc12 |

— ChEMBL document CHEMBL1150339, “Synthesis and anti-breast cancer activities of substituted quinolines” (Bioorg Med Chem Lett, 2008)
